pIC50: −log10 of the molar value.
How the values were obtained:
Assay in all cases: COMPOUND A In Vitro Assay
Type in all cases: cell-based
A-204 = conditions: Homo sapiens, A204, Muscle, TP53 Mutant
Description: (§1) To generate an MDM2 antagonist therapy predictive signature, the response of MDM2 antagonist therapy in vitro with gene expression profiling (FIG. 1) is combined. A bank of 287 human cancer cell lines, collectively termed the Cell Lines for Oncology/Chugai ACcumulative Tumour EncycLopedia (CELLO/CACTEL), representing a broad array of diverse human cancer tumor types are subject to evaluation using several high-throughput genomic technology platforms. The mutational status of nucleic acids from each cell line is determined by exome sequencing. Messenger RNA (mRNA) expression levels at baseline, prior to MDM2 antagonist therapy, are obtained via RNA sequencing. MDM2 antagonist therapy COMPOUND A, sometimes referred to herein as RG7112, responses are obtained by assays known to those skilled in the art such as RNA sequencing and microarray measurement using Gene Chip Human Genome U133 Plus 2.0 Array. The MDM2 therapy responses are obtained by high throughout screening assays. Depending on their responses to COMPOUND A these cell lines are classified as either sensitive, defined as IC50<=1, or resistant, defined as IC50>=10.
(§2) 281 cells are treated with MDM2 antagonists and the IC50 (therapy response) is generated. The cell lines span a broad range of tumor cell types of derivation.

A-431 = conditions: Homo sapiens, Skin, epidermis, TP53 Mutant
Description: as §1, §2

A2058 = conditions: Homo sapiens, Skin, TP53 Mutant
Description: as §1, §2

Calu-3 = conditions: Homo sapiens, Lung, TP53 Mutant
Description: as §1, §2

HCC1569 = conditions: Homo sapiens, Breast, mammary gland, TP53 Mutant
Description: as §1, §2

HEC-1-A = conditions: Homo sapiens, Uterus, endometrium, TP53 Mutant
Description: as §1, §2

HT-1080 = conditions: Homo sapiens
Description: as §1, §2

HT-1197 = conditions: Homo sapiens
Description: as §1, §2

HT-29 = conditions: Homo sapiens, Intestine, large, colon, TP53 Mutant
Description: as §1, §2

HUP-T4 = conditions: Homo sapiens, Pancreas, TP53 Mutant
Description: as §1, §2

HeLa S3 = conditions: Homo sapiens, Cervix, TP53 Mutant
Description: as §1, §2

Hep3B = conditions: Homo sapiens, Liver, TP53 Mutant
Description: as §1, §2

KG-1 = conditions: Homo sapiens, Bone marrow, TP53 Mutant
Description: as §1, §2

KMS-34 = conditions: Homo sapiens, Lymphocyte, TP53 Mutant
Description: as §1, §2

MDA-MB-157 = conditions: Homo sapiens, Breast, mammary gland, TP53 Mutant
Description: as §1, §2

ME-180 = conditions: Homo sapiens, Cervix, TP53 Wild type
Description: as §1, §2

NCCIT = conditions: Homo sapiens, Germ cell, gametocyte, TP53 Mutant
Description: as §1, §2

NCI-H1155 = conditions: Homo sapiens, Lung, TP53 Mutant
Description: as §1, §2

NCI-H1299 = conditions: Homo sapiens, Lung, TP53 Mutant
Description: as §1, §2

NCI-H1437 = conditions: Homo sapiens, Lung, TP53 Mutant
Description: as §1, §2

NCI-H1792 = conditions: Homo sapiens, Lung, TP53 Mutant
Description: as §1, §2

NCI-H446 = conditions: Homo sapiens, Lung, TP53 Mutant
Description: as §1, §2

NCI-H460 = conditions: Homo sapiens
Description: as §1, §2

NCI-H522 = conditions: Homo sapiens, Lung, TP53 Mutant
Description: as §1, §2

NCI-N87 = conditions: Homo sapiens, Stomach, TP53 Mutant
Description: as §1, §2

OPM-2 = conditions: Homo sapiens, Lymphocyte B, TP53 Mutant
Description: as §1, §2

QG-56 = conditions: Homo sapiens, Lung, TP53 Mutant
Description: as §1, §2

SCC-15 = conditions: Homo sapiens, Tongue, TP53 Mutant
Description: as §1, §2

SK-BR-3 = conditions: Homo sapiens, Pleura, TP53 Mutant
Description: as §1, §2

SK-LU-1 = conditions: Homo sapiens, Lung, TP53 Mutant
Description: as §1, §2

SK-N-DZ = conditions: Homo sapiens, Brain, TP53 Mutant
Description: as §1, §2

SK-N-SH = conditions: Homo sapiens
Description: as §1, §2

SNU-1 = conditions: Homo sapiens
Description: as §1, §2

SU•86•86 = conditions: Homo sapiens, SU.86.86, Pancreas, TP53 Mutant
Description: as §1, §2

SW579 = conditions: Homo sapiens, Thyroid gland, TP53 Mutant
Description: as §1, §2

U-138 MG = conditions: Homo sapiens, U138-MG, Brain, TP53 Mutant
Description: as §1, §2

CCOc1cc(C(C)(C)C)ccc1C1=N[C@@](C)(c2ccc(Cl)cc2)[C@@](C)(c2ccc(Cl)cc2)N1C(=O)N1CCN(CCCS(C)(=O)=O)CC1 [COMPOUND A]
pIC50 (A-204): 5.08 | pIC50 (A-431): 5.02 | pIC50 (A2058): 4.77 | pIC50 (Calu-3): 4.96 | pIC50 (HCC1569): 4.82 | pIC50 (HEC-1-A): 4.80 | pIC50 (HT-1080; HT-1080, HT-1080, Connective tissue, TP53 Wild type): 7.24 | pIC50 (HT-1080; HT-1080, HT-1080 cells): 7.00 | pIC50 (HT-1197; HT1197, HT-1197, Urinary, bladder, TP53 Wild type): 6.72 | pIC50 (HT-1197; HT1197, HT-1197 cells): 6.70 | pIC50 (HT-29): 5.13 | pIC50 (HUP-T4): 4.77 | pIC50 (HeLa S3): 4.70 | pIC50 (Hep3B): 5.17 | pIC50 (KG-1): 4.82 | pIC50 (KMS-34): 5.01 | pIC50 (MDA-MB-157): 4.70 | pIC50 (ME-180): 5.03 | pIC50 (NCCIT): 4.96 | pIC50 (NCI-H1155): 4.66 | pIC50 (NCI-H1299): 4.82 | pIC50 (NCI-H1437): 5.00 | pIC50 (NCI-H1792): 5.15 | pIC50 (NCI-H446): 4.74 | pIC50 (NCI-H460; NCI-H460, NCI-H460, Lung, TP53 Wild type): 6.06 | pIC50 (NCI-H460; NCI-H460, NCI-H460 cells): 6.05 | pIC50 (NCI-H522): 4.66 | pIC50 (NCI-N87): 4.92 | pIC50 (OPM-2): 4.89 | pIC50 (QG-56): 5.00 | pIC50 (SCC-15): 4.70 | pIC50 (SK-BR-3): 4.68 | pIC50 (SK-LU-1): 4.96 | pIC50 (SK-N-DZ): 5.24 | pIC50 (SK-N-SH; Brain, TP53 Wild type): 6.68 | pIC50 (SK-N-SH; SK-N-SH cells): 6.70 | pIC50 (SNU-1; SNU1, SNU-1, Stomach, TP53 Wild type): 6.43 | pIC50 (SNU-1; SNU1, SNU-1 cells): 6.40 | pIC50 (SU•86•86): 5.17 | pIC50 (SW579): 4.80 | pIC50 (U-138 MG): 4.54

From patent US9657351B2, “MRNA-based gene expression for personalizing patient cancer therapy with an MDM2 antagonist” (Hoffmann-La Roche Inc., priority 2013, dated 2017)
